Results on nine molecules are retold here after ChEMBL document CHEMBL1201862, “PubChem BioAssay data set” (2004).

Molecules are shown by their SMILES.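 Protocol summary: plate cells (96-well), add compound at 5 concentrations, incubate 48 h, interpolate endpoints linearly. Here, GI50 denotes the concentration required for 50% inhibition of growth.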 Active and inactive are the calls of the source. Rule as the data show it: active = GI50 up to about 1.1 µM and inactive = higher.

Some test systems named below: NCI-H522; EKVX; KM12; U-251; 786-0; TK-10; RXF 393; A549; SNB-19; HCT-15; A498; OVCAR-8; MDA-MB-231; UO-31; SK-OV-3; NCI/ADR-RES; SNB-75; SK-MEL-28; MDA-MB-435; PC-3.
Holding throughout (test): inhibition of tumour cell growth, NCI panel, 48 h

As for `CN(C)C(=O)O/N=C1/C(=C2/C(=O)Nc3ccccc32)Nc2ccccc21`, the GI50 with NCI-H522 was 8.75 µM (inactive); with EKVX it was 4.83 µM (inactive); with KM12 it was 0.304 µM (active); in the experiment on U-251 it was 11.7 µM (inactive); in the experiment on 786-0 it was 6.98 µM (inactive); in the experiment with TK-10 it was 17.4 µM (inactive). Also, the GI50 in the experiment with RXF 393 was 1.57 µM (inactive); with A549, 20.5 µM (inactive); with SNB-19 it was 10.9 µM (inactive); in the experiment with HCT-15, 19.2 µM; in the experiment with A498, 1.5 µM (inactive); in the experiment on OVCAR-8, 9.75 µM (inactive). The GI50 in the experiment with MDA-MB-231 was 11.6 µM (inactive); in the experiment with UO-31, 21.6 µM (inactive); in the experiment with SK-OV-3, 11.8 µM (inactive); in the experiment with NCI/ADR-RES it was 21.9 µM (inactive); in the experiment with SNB-75, 2.45 µM (inactive); in the experiment on SK-MEL-28 it was 36.5 µM (inactive). The GI50 with MDA-MB-435 is 50.7 µM (inactive).

Consider `Cc1ccc(NC(=O)/C=C/c2ccccc2)c(C)c1`, for which the GI50 in the experiment on NCI-H522 is 30 µM (inactive); with EKVX it was 26.6 µM (inactive); in the experiment on KM12 it was > 100 µM (inactive); with U-251, 76 µM (inactive); in the experiment on 786-0, 74.5 µM (inactive); with TK-10, > 100 µM (inactive). Further, the GI50 with PC-3 was > 100 µM (inactive); with A549 it was > 100 µM (inactive); with SNB-19, > 100 µM (inactive); in the experiment on HCT-15 it was over 100 µM; in the experiment on A498 it was > 100 µM (inactive); in the experiment with OVCAR-8, 37.3 µM (inactive). The GI50 in the experiment on MDA-MB-231 is 52.1 µM (inactive); in the experiment on SK-OV-3, 43.2 µM (inactive); with SNB-75, 24.9 µM (inactive); in the experiment on SK-MEL-28, > 100 µM (inactive); in the experiment on MDA-MB-435, > 100 µM (inactive).

As to `O=C1C(Cl)=C(OCCCl)C(=O)c2c(O)ccc(O)c21`, the GI50 in the experiment with EKVX is 18.6 µM (inactive); in the experiment on KM12, 19.7 µM (inactive); in the experiment on U-251 it was 14.3 µM (inactive); with 786-0, 6.58 µM (inactive); with TK-10 it was 2.6 µM (inactive); in the experiment on RXF 393, 6.44 µM (inactive). For the same molecule, the GI50 with PC-3 is 13.2 µM (inactive); in the experiment with A549, 20 µM (inactive); in the experiment on SNB-19 it was 16.7 µM (inactive); in the experiment with HCT-15, 2.53 µM; in the experiment on A498, 20.5 µM (inactive); in the experiment with OVCAR-8 it was 13.9 µM (inactive). Moreover, the GI50 with MDA-MB-231 was 4.38 µM (inactive); in the experiment on UO-31, 5.36 µM (inactive); with SK-OV-3, 18.2 µM (inactive); in the experiment on NCI/ADR-RES, 15.2 µM (inactive); with SNB-75, 13 µM (inactive); in the experiment with SK-MEL-28, 4.06 µM (inactive).

As to `CCOC(=O)c1csc(-c2nc(CCNC(=O)c3ccccc3)sc2Cl)n1`, the GI50 was > 100 µM (inactive) in the experiment with EKVX; 69.2 µM (inactive) in the experiment on KM12; 73.8 µM (inactive) in the experiment on U-251; > 100 µM (inactive) with 786-0; > 100 µM (inactive) with TK-10; > 100 µM (inactive) with RXF 393. The GI50 in the experiment with PC-3 is 32.1 µM (inactive); with A549, > 100 µM (inactive); with SNB-19, > 100 µM (inactive); in the experiment with HCT-15, 51.3 µM; in the experiment with A498, 15.4 µM (inactive); in the experiment on OVCAR-8 it was 45 µM (inactive). Moreover, the GI50 in the experiment with UO-31 was 61.2 µM (inactive); in the experiment with SK-OV-3, > 100 µM (inactive); in the experiment with NCI/ADR-RES, 41.1 µM (inactive); with SNB-75 it was 49.4 µM (inactive); with SK-MEL-28, 56.6 µM (inactive); in the experiment with MDA-MB-435, 62.7 µM (inactive).

For `CN(C)CCNc1c([N+](=O)[O-])cc2c3c(cccc13)C(=O)N(CCN(C)C)C2=O`, the GI50 in the experiment with NCI-H522 was 1.25 µM (inactive); with EKVX, 2.15 µM (inactive); in the experiment on KM12, 8.18 µM (inactive); with U-251, 1.82 µM (inactive); with RXF 393, 1.42 µM (inactive); in the experiment with A549 it was 1.84 µM (inactive). For the same molecule, the GI50 in the experiment on SNB-19 was 1.59 µM (inactive); with HCT-15 it was 1.7 µM; in the experiment with A498, 1.67 µM (inactive); in the experiment on OVCAR-8, 1.05 µM (active); in the experiment on UO-31, 1.58 µM (inactive); in the experiment with SK-OV-3, 1.76 µM (inactive). For the same molecule, the GI50 in the experiment on NCI/ADR-RES is 1.54 µM (inactive); in the experiment on SNB-75, 1.7 µM (inactive); in the experiment on SK-MEL-28 it was 1.67 µM (inactive).

Turning to `CCOC(=O)C1=C(c2ccccc2)C12N(Cc1ccccc1)C(=O)C2(c1ccccc1)c1ccccc1` (configuration not stated), the GI50 in the experiment with NCI-H522 is 32.8 µM (inactive); in the experiment on EKVX, 38.8 µM (inactive); with KM12, 29.4 µM (inactive); in the experiment with U-251, 37.8 µM (inactive); with TK-10, > 100 µM (inactive); with RXF 393, 28.3 µM (inactive). The GI50 in the experiment with PC-3 was 21.3 µM (inactive); in the experiment with SNB-19, 96.8 µM (inactive); in the experiment with HCT-15, 30.8 µM; with A498, 36.8 µM (inactive); with MDA-MB-231 it was 29.9 µM (inactive); in the experiment on UO-31 it was 28.8 µM (inactive). Moreover, the GI50 in the experiment with SK-OV-3 is 47.9 µM (inactive); with SK-MEL-28, 74.3 µM (inactive); in the experiment with MDA-MB-435 it was 34.8 µM (inactive).

`N#C/C(C(=O)Nc1ccc(Cl)cc1)=C(/N)N1CCOCC1`: the GI50 in the experiment on EKVX, in the experiment on KM12, in the experiment on U-251, with 786-0, in the experiment on PC-3 and with A549 was > 100 µM (inactive) throughout. In addition, the GI50 is > 100 µM (inactive) in the experiment on SNB-19; over 100 µM with HCT-15; > 100 µM (inactive) with A498; > 100 µM (inactive) in the experiment on OVCAR-8; 91 µM (inactive) in the experiment with UO-31; > 100 µM (inactive) with SK-OV-3. The GI50 in the experiment on NCI/ADR-RES was > 100 µM (inactive); in the experiment on SNB-75 it was 65.5 µM (inactive); in the experiment with SK-MEL-28 it was 76 µM (inactive); with MDA-MB-435, 56.9 µM (inactive).

With `CC1C2CC(CC(=O)N2)C1(C)C` (configuration not stated), the GI50 in the experiment on NCI-H522, in the experiment with EKVX, with KM12, in the experiment with U-251, in the experiment with 786-0 and in the experiment on TK-10 was > 100 µM (inactive) each time. Further, the GI50 in the experiment with RXF 393, with PC-3, in the experiment with A549, with SNB-19, with A498 and in the experiment with OVCAR-8 was > 100 µM (inactive) each time. Also, the GI50 in the experiment with MDA-MB-231, in the experiment on UO-31, in the experiment on SK-OV-3, with SNB-75, with SK-MEL-28 and in the experiment with MDA-MB-435 was > 100 µM (inactive) throughout.

Take `C=C1C[C@H]2C=Nc3cc(OCCCOc4cc5c(cc4OC)C(=O)N4CC(=C)C[C@H]4C=N5)c(OC)cc3C(=O)N2C1` [SJG-136]: the GI50 with NCI-H522 was 0.0014 µM (active); with KM12 it was 0.0124 µM (active); in the experiment on U-251, < 0.01 µM (active); in the experiment on 786-0, < 0.01 µM (active); in the experiment with TK-10, 0.0316 µM (active); in the experiment on RXF 393, < 0.0107 µM (active). The GI50 was 0.0157 µM (active) in the experiment with A549; < 0.01 µM (active) in the experiment with SNB-19; 0.124 µM in the experiment on HCT-15; 0.0146 µM (active) with A498; 0.0119 µM (active) in the experiment with OVCAR-8; < 0.0108 µM (active) in the experiment with MDA-MB-231. Also, the GI50 with UO-31 was 0.0208 µM (active); in the experiment on SK-OV-3, 0.0216 µM (active); in the experiment on SNB-75, < 0.01 µM (active); in the experiment on SK-MEL-28, 0.0141 µM (active).
